The compounds below were run against T1, purified recombinant human Aggrecanase-2 (Agg2-Phe628) (Homo sapiens, UniProt Q9UNA0) (assay: Aggrecanase 2 continuous in vitro fluorescence assay). Settings: Agg2-Phe628 0.5 μg/ml, substrate 25 μM, 30° C.; read-out: IC50.
T1 construct: (Agg2-Phe628) (MW=41,737), which is a truncated form of full-length human aggrecanase-2; made in house; host or cells: CHO cells
T1 sequence (Q9UNA0 262-628 limits assumed): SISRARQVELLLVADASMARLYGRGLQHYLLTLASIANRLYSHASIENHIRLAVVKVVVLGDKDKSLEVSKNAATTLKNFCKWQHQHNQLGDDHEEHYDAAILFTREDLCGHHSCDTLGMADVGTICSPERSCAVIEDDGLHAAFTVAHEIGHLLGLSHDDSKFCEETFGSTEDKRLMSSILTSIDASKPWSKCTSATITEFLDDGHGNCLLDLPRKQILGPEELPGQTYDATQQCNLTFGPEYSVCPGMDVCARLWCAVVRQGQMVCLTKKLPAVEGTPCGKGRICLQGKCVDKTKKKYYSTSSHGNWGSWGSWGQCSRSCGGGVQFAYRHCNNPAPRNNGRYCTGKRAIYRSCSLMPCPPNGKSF
Assay type: biochemical
Procedure: A continuous vitro fluorescence assay was employed, wherein the enzyme used in the assay was a purified recombinant human Aggrecanase-2 (Agg2-Phe628) (MW=41,737), which is a truncated form of full-length human aggrecanase-2 that was expressed in CHO cells and purified prior to use. The final concentration of Agg2-Phe628 was 0.5 μg/ml. The buffer used in this assay was 50 mM HEPES, pH 7.5, 100 mM NaCl, 5 mM CaCl2, 0.1% CHAPS, 5% glycerol. The substrate used in the assay was a synthetic peptide having the sequence ABz-[sequence]-Dap(Dnp)-KK—NH2 (>95% pure by HPLC, AnaSpec, Inc.), wherein Abz refers to ortho-aminobenzyl, a fluorescent group which is quenched by energy transfer to a 2,4-dinitrophenyl group. The final concentration of substrate in the assay was 25 μM and was spectrophotometrically determined using the extinction coefficient at 354 nm of 18,172 M^−1cm^−1. The Vmax and Km for this enzyme/substrate reaction were determined to be insensitive to DMSO up to at least 10% (v/v).
The total reaction volume was 100 μl. The buffer and enzyme were added first followed by addition of 10× inhibitor from the dilution plate. Separate enzyme and buffer samples were included in order to obtain the maximal rate of substrate cleavage. The reaction was allowed to stand at 30° C. for 15 minutes, then substrate was added, the resultant solution was mixed. The resultant reaction was allowed to progress, with monitoring, for 40 minutes at 30° C. in kinetic mode using λex: 340 nm and λem: 420 (GeminiXS Molecular Devices).
The fluorescence intensity is linear during the time of data collection. The slope of the line (Vmax/sec) represents the initial reaction rate, ν. The maximal rate of cleavage of substrate was determined in the absence of inhibitor. The percent inhibition of activity in the presence of inhibitor was calculated using the following equation:
% inhibition=(1−ν(RFU/sec))/Maximal Rate(RFU/sec))*100
The IC50 was obtained by fitting the initial rate, ν or % inhibition at each concentration of inhibitor to the following equation:
This model describes a sigmoidal curve with an adjustable baseline, wherein:
y is the % inhibition or initial rate of reaction;
C is the concentration of inhibitor under test;
a is the limiting response as C approaches zero. As C increases without bound y tends toward its lower limit, d;
y is halfway between the lower and upper asymptotes when C=IC50; and
n is the Hill coefficient. The sign of n is positive when the response increases with increasing dose and is negative when the response decreases with increasing dose (inhibition).

Compound | IC50 [µM]
O=C1Nc2ccc(OC(F)(F)F)cc2C12NN=C(c1ccccc1)S2 (stereo not drawn) [Compound 31, 5′-phenyl-5-(trifluoromethoxy)-3′H-spiro[indole-3,2′-[1,3,4]thiadiazol]-2(1H)-one] | 7.22
COc1ccc(C2=NNC3(S2)C(=O)Nc2ccc(OC)cc23)cc1 (stereo not drawn) [Compound 6, 5-methoxy-5′-(4-methoxyphenyl)-3′H-spiro[indole-3,2′-[1,3,4]thiadiazol]-2(1H)-one] | > 2.5
CN1C(=O)C2(NN=C(c3ccccc3)S2)c2ccccc21 (stereo not drawn) [Compound 52, 1-methyl-5′-phenyl-3′H-spiro[indoline-3,2′-[1,3,4]thiadiazol]-2-one] | 24.1
COc1ccc(C2=NNC3(S2)C(=O)N(C)c2ccccc23)cc1 (stereo not drawn) [Compound 2, 5′-(4-methoxyphenyl)-1-methyl-3′H-spiro[indole-3,2′-[1,3,4]thiadiazol]-2(1H)-one] | > 7
CC(=O)N1C(=O)C2(NN=C(c3ccccc3)S2)c2ccccc21 (stereo not drawn) [Compound 56, 1-acetyl-5′-phenyl-3′H-spiro[indoline-3,2′-[1,3,4]thiadiazol]-2-one] | 12.5
O=C1Nc2cc(F)c(F)cc2C12NN=C(c1ccccc1)S2 (stereo not drawn) [Compound 39, 5,6-difluoro-5′-phenyl-3′H-spiro[indole-3,2′-[1,3,4]thiadiazol]-2(1H)-one] | 14.3

Results, then the compound that gave them:

IC50 [µM] | Compound
5.92 | COc1ccc(C2=NNC3(S2)C(=O)Nc2c3ccc(C)c2OC)cc1 (stereo not drawn) [Compound 20, 7-methoxy-5′-(4-methoxyphenyl)-6-methyl-3′H-spiro[indole-3,2′-[1,3,4]thiadiazol]-2(1H)-one]
5.42 | CCN1C(=O)C2(NN=C(c3ccc(OC)cc3)S2)c2cc(F)c(N3CCN(C)CC3)cc21 (stereo not drawn) [Compound 21, 1-ethyl-5-fluoro-5′-(4-methoxyphenyl)-6-(4-methylpiperazin-1-yl)-3′H-spiro[indole-3,2′-[1,3,4]thiadiazol]-2(1H)-one]
4.88 | C=CCN1C(=O)C2(NN=C(c3ccccc3)S2)c2ccccc21 (stereo not drawn) [Compound 41, 1-allyl-5′-phenyl-3′H-spiro[indole-3,2′-[1,3,4]thiadiazol]-2(1H)-one]
4.67 | Cc1cc(C)c2c(c1)C1(NN=C(c3ccccc3)S1)C(=O)N2 (stereo not drawn) [Compound 34, 5,7-dimethyl-5′-phenyl-3′H-spiro[indole-3,2′-[1,3,4]thiadiazol]-2(1H)-one]
4.43 | COc1ccc(C2=NNC3(S2)C(=O)Nc2ccc([N+](=O)[O-])cc23)cc1 (stereo not drawn) [Compound 16, 5′-(4-methoxyphenyl)-5-nitro-3′H-spiro[indole-3,2′-[1,3,4]thiadiazol]-2(1H)-one]
3.75 | COc1ccc(C2=NNC3(S2)C(=O)Nc2c(C)cccc23)cc1 (stereo not drawn) [Compound 18, 5′-(4-methoxyphenyl)-7-methyl-3′H-spiro[indole-3,2′-[1,3,4]thiadiazol]-2(1H)-one]
3.06 | COc1ccc(C2=NNC3(S2)C(=O)Nc2c(C)cc(C)cc23)cc1 (stereo not drawn) [Compound 1, 5′-(4-methoxyphenyl)-5,7-dimethyl-3′H-spiro[indole-3,2′-[1,3,4]thiadiazol]-2(1H)-one]
2.96 | CCc1ccc2c(c1)C1(NN=C(c3ccc(F)cc3)S1)C(=O)N2 (stereo not drawn) [Compound 43, 5-ethyl-5′-(4-fluorophenyl)-3′H-spiro[indole-3,2′-[1,3,4]thiadiazol]-2(1H)-one]
2.53 | COc1ccc(C2=NNC3(S2)C(=O)Nc2ccc(C)cc23)cc1 (stereo not drawn) [Compound 5, 5′-(4-methoxyphenyl)-5-methyl-3′H-spiro[indole-3,2′-[1,3,4]thiadiazol]-2(1H)-one]
2.47 | C#CCN1C(=O)C2(NN=C(c3ccc(OC)cc3)S2)c2ccccc21 (stereo not drawn) [Compound 7, 5′-(4-methoxyphenyl)-1-prop-2-yn-1-yl-3′H-spiro[indole-3,2′-[1,3,4]thiadiazol]-2(1H)-one]
2.41 | COc1ccc(C2=NNC3(S2)C(=O)Nc2ccc(Br)cc23)cc1 (stereo not drawn) [Compound 4, 5-bromo-5′-(4-methoxyphenyl)-3′H-spiro[indole-3,2′-[1,3,4]thiadiazol]-2(1H)-one]
1.96 | 5-chloro-5′-(4-methoxyphenyl)-3′H-spiro[indole-3,2′-[1,3,4]thiadiazol]-2(1H)-one [Compound 13]
1.66 | CCc1ccc2c(c1)C1(NN=C(c3ccc(C(C)(C)C)cc3)S1)C(=O)N2 (stereo not drawn) [Compound 44, 5′-(4-tert-butylphenyl)-5-ethyl-3′H-spiro[indole-3,2′-[1,3,4]thiadiazol]-2(1H)-one]
1.45 | CCCC(=O)N1C(=O)C2(NN=C(c3ccc(C)cc3)S2)c2cc(CC)ccc21 (stereo not drawn) [Compound 45, 1-butyryl-5-ethyl-5′-(4-methylphenyl)-3′H-spiro[indole-3,2′-[1,3,4]thiadiazol]-2(1H)-one]
1.4 | COc1ccc(C2=NNC3(S2)C(=O)Nc2cc(C)ccc23)cc1 (stereo not drawn) [Compound 19, 5′-(4-methoxyphenyl)-6-methyl-3′H-spiro[indole-3,2′-[1,3,4]thiadiazol]-2(1H)-one]
1.4 | CCCc1ccc2c(c1)NC(=O)C21NN=C(c2ccc(C)cc2)S1 (stereo not drawn) [Compound 37, 5′-(4-methylphenyl)-6-propyl-3′H-spiro[indole-3,2′-[1,3,4]thiadiazol]-2(1H)-one]
1.36 | CCc1ccc2c(c1)C1(NN=C(c3ccc(OC)cc3)S1)C(=O)N2 (stereo not drawn) [Compound 29, 5-ethyl-5′-(4-methoxyphenyl)-3′H-spiro[indole-3,2′-[1,3,4]thiadiazol]-2(1H)-one]
1.26 | COc1ccc(C2=NNC3(S2)C(=O)N(c2ccc(Cl)c(Cl)c2)c2ccc(C)cc23)cc1 (stereo not drawn) [Compound 26, 1-(3,4-dichlorophenyl)-5′-(4-methoxyphenyl)-5-methyl-3′H-spiro[indole-3,2′-[1,3,4]thiadiazol]-2(1H)-one]
1.18 | 5′-(4-methoxyphenyl)-1-[3-(trifluoromethyl)phenyl]-3′H-spiro[indole-3,2′-[1,3,4]thiadiazol]-2(1H)-one [Compound 8]
0.995 | COc1ccc(C2=NNC3(S2)C(=O)N(c2cccc([N+](=O)[O-])c2)c2ccc(C)cc23)cc1 (stereo not drawn) [Compound 27, 5′-(4-methoxyphenyl)-5-methyl-1-(3-nitrophenyl)-3′H-spiro[indole-3,2′-[1,3,4]thiadiazol]-2(1H)-one]
0.95 | CCCc1ccc2c(c1)N(Cc1ccccc1)C(=O)C21NN=C(c2ccc(OC)cc2)S1 (stereo not drawn) [Compound 28, 1-benzyl-5′-(4-methoxyphenyl)-6-propyl-3′H-spiro[indole-3,2′-[1,3,4]thiadiazol]-2(1H)-one]
0.874 | 1-benzyl-5′-(4-methoxyphenyl)-3′H-spiro[indole-3,2′-[1,3,4]thiadiazol]-2(1H)-one [Compound 10]
0.775 | CCCc1ccc2c(c1)NC(=O)C21NN=C(c2ccc(OC)cc2)S1 (stereo not drawn) [Compound 15, 5′-(4-methoxyphenyl)-6-propyl-3′H-spiro[indole-3,2′-[1,3,4]thiadiazol]-2(1H)-one]

Same assay, conditions: inhibitor concentration not given

% Inhibition [%] | Compound
41 | COc1ccc2c(c1)C1(NN=C(c3ccccc3)S1)C(=O)N2 (stereo not drawn) [Compound 35, 5-methoxy-5′-phenyl-3′H-spiro[indole-3,2′-[1,3,4]thiadiazol]-2(1H)-one]
3.7 | Cc1ccc(C2=NNC3(S2)C(=O)Nc2ccccc23)cc1 (stereo not drawn) [Compound 50, 5′-(4-methylphenyl)-3′H-spiro[indole-3,2′-[1,3,4]thiadiazol]-2(1H)-one]
39 | COc1ccc(C2=NNC3(S2)C(=O)N(c2ccc(C)cc2)c2ccc(C)cc23)cc1 (stereo not drawn) [Compound 24, 5′-(4-methoxyphenyl)-5-methyl-1-(4-methylphenyl)-3′H-spiro[indole-3,2′-[1,3,4]thiadiazol]-2(1H)-one]
3 | Cc1ccc(C2=NNC3(S2)C(=O)Nc2ccc(C)cc23)cc1 (stereo not drawn) [Compound 49, 5-methyl-5′-(4-methylphenyl)-3′H-spiro[indole-3,2′-[1,3,4]thiadiazol]-2(1H)-one]
1.9 | CCc1ccc2c(c1)C1(NN=C(c3ccc(C)cc3)S1)C(=O)N2 (stereo not drawn) [Compound 48, 5-ethyl-5′-(4-methylphenyl)-3′H-spiro[indole-3,2′-[1,3,4]thiadiazol]-2(1H)-one]
39 | O=C1Nc2c(Cl)ccc(Cl)c2C12NN=C(c1ccccc1)S2 (stereo not drawn) [Compound 40, 4,7-dichloro-5′-phenyl-3′H-spiro[indole-3,2′-[1,3,4]thiadiazol]-2(1H)-one]
50 | COc1ccc(C2=NNC3(S2)C(=O)Nc2cccc(N4CCN(Cc5ccccc5)CC4)c23)cc1 (stereo not drawn) [Compound 14, 4-(4-benzylpiperazin-1-yl)-5′-(4-methoxyphenyl)-3′H-spiro[indole-3,2′-[1,3,4]thiadiazol]-2(1H)-one]
30 | 1-[2-(dimethylamino)ethyl]-5′-(4-methoxyphenyl)-3′H-spiro[indole-3,2′-[1,3,4]thiadiazol]-2(1H)-one [Compound 11]
4.6 | Cc1ccc(C2=NNC3(S2)C(=O)N(C)c2ccccc23)cc1 (stereo not drawn) [Compound 51, 1-methyl-5′-(4-methylphenyl)-3′H-spiro[indole-3,2′-[1,3,4]thiadiazol]-2(1H)-one]

Same assay, conditions: positive control at 10 nM

inhibition at 0.01 µM [%] | Compound
40 | CNC(=O)[C@H](Cc1ccccc1)NC(=O)[C@H](CC(C)C)[C@H](CSc1cccs1)C(=O)NO [N2-{(2R)-2-[(1S)-1-Hydroxycarbamoyl-2-(thiophen-2-ylsulfanyl)-ethyl]-4-methyl-pentanoyl}-N-methyl-L-phenylalaninamide, reference compound]

Same assay, conditions: positive control at 20 nM

inhibition at 0.02 µM [%] | Compound
60 | CNC(=O)[C@H](Cc1ccccc1)NC(=O)[C@H](CC(C)C)[C@H](CSc1cccs1)C(=O)NO [N2-{(2R)-2-[(1S)-1-Hydroxycarbamoyl-2-(thiophen-2-ylsulfanyl)-ethyl]-4-methyl-pentanoyl}-N-methyl-L-phenylalaninamide, reference compound]

Same assay, conditions: positive control at 200 nM

inhibition at 0.2 µM [%] | Compound
100 | CNC(=O)[C@H](Cc1ccccc1)NC(=O)[C@H](CC(C)C)[C@H](CSc1cccs1)C(=O)NO [N2-{(2R)-2-[(1S)-1-Hydroxycarbamoyl-2-(thiophen-2-ylsulfanyl)-ethyl]-4-methyl-pentanoyl}-N-methyl-L-phenylalaninamide, reference compound]

Same assay, conditions: positive control; read-out: Agg2 IC50

IC50 [µM] | Compound
0.036 | CNC(=O)[C@H](Cc1ccccc1)NC(=O)[C@H](CC(C)C)[C@H](CSc1cccs1)C(=O)NO [N2-{(2R)-2-[(1S)-1-Hydroxycarbamoyl-2-(thiophen-2-ylsulfanyl)-ethyl]-4-methyl-pentanoyl}-N-methyl-L-phenylalaninamide, reference compound]

From patent US20080125469A1, “Thiadiazole compounds and methods of use thereof” (Wyeth, priority 2006, published 2008)
